Experimental data taken from patent US20090221697A1, “MACROLIDE CONJUGATES OF PYRROLIZINE AND INDOLIZINE COMPOUNDS AS INHIBITORS OF 5-LIPOOXYGENASE AND CYCLOOXYGENASE” (MERCKLE GMBH, priority 2005, published 2009).

Legend:
blood cells = experiment: Uptake of conjugates into blood cells (buffy coat preparations), LC/MS; format: in vitro ADME; design: key: −: excluded from blood cells; +: equal or similar; ++: >5-fold enhancement in blood cells; +++: >10-fold enhancement in blood cells; conditions: substrates 1 to 10 μM, 37° C., 5% CO2, screening samples at 0 and 120 minutes
Protocol: Freshly drawn heparinised blood or buffy coat preparations are used for the determination of conjugate uptake. Buffy coat preparations are preferred. They may be obtained from donor blood by simple centrifugation of whole blood (4795 g for 10 minutes). Following centrifugation, plasma is collected from the surface, after which immune cells are expressed from the donor bags along with the erythrocytes lying immediately below the leukocyte layer. This ensures high yields and a sufficient population of erythrocytes for partition. 5 ml of the resulting cell suspension are dispensed into T25 culture flasks. Substrates are added to a final concentration between 1 and 10 μM and the suspensions incubated at 37° C., in a 5% CO2 atmosphere. For analysis of uptake kinetics, samples are drawn at 0, 2, 5, 10, 30, 60, 90, 180, or 240 min after substrate addition. For screening purposes, samples are taken at 0 and 120 minutes.
Cell fractions were prepared using density gradient centrifugation. Mononuclear cells and polymorphonuclear cells are separated from erythrocytes essentially by layering the cell suspension on a viscous medium typically composed of a solution containing Ficoll or similar (commercial suppliers include: Lymphoprep, Axis Shield, 1031966; Lymphoflot HLA, 824010; or PMN Separation Medium Robbins Scientific 1068-00-0). The layered suspension is then centrifuged at 600 g, 20 min, after which the cell fractions and the plasma (incubation medium) fraction are removed by gentle aspiration, washed twice in PBS buffer, followed by estimation of the cell number and pellet volume.
Uptake of compounds is monitored using chromatographic analysis (LC/MS) with mass selective detection. Uptake is also normalized to the amount of cells based on both estimated volume and total protein. […] The supernatant is recovered and sub-sampled for protein and DNA content. Protein in the supernatant is precipitated by bringing the solution to 100% v/v ethanol and centrifuging again at 16100 g, 10 min. Compound uptake is normalized according to cytoplasmic volume of cells in order to obtain the average concentration in the cells. Cell volume is estimated by correlation of DNA, protein or haem content of lysed cell aliquots to cell number and packed volume prior to lysis.

[1] = tested on: collagen-induced arthritis in DBA J1 mice; experiment: Collagen-induced arthritis, arthritic score (Table 2); format: in vivo; design: key: −: healthy paw; +: one joint inflamed; ++: two types of joint inflamed (e.g. tarsal and digit); +++: inflammation of three joints in two separate parts of the paw; ++++: inflammation of whole paw; conditions: treated for 10 days after arthritis developed
Protocol: (§1) Efficacy of drugs in suppressing arthritis may be determined using animal models. The collagen-induced arthritis in rodents is a well established experimental model of rheumatoid arthritis and considered appropriate to test the efficacy of anti-inflammatory drugs. The model is performed by immunising animals with exogenous collagen (e.g. bovine or chick) and administering substances following the appearance of disease. Disease may be boosted to increase response. The data reported herein were generated using the murine model in DBA J1 mice. At day zero a collagen suspension in complete Freund's adjuvant was injected s.c. at the tail base. At day 20, collagen in incomplete Freund's adjuvant was injected at a nearby position on the tail base. When arthritis developed, animals were randomly assigned to treatment groups. Signs monitored included weight, paw score, paw thickness and overall condition. Animals were observed and treated for 10 days. Macrolide conjugates were formulated as solutions in 1.5% citrate, 6% fructose in water.

[2] = tested on: collagen-induced arthritis in DBA J1 mice; experiment: Collagen-induced arthritis (bovine collagen), further experiment, p.o. once daily (Table 3); format: in vivo; conditions: vehicle = 100%
Protocol: as §1
In a further experiment Arthritis was induced using bovine collagen as described above. Animals were treated with compounds p.o. once daily following positive development of disease. Comparison with control animals (untreated) was made at 9 days after treatment.

[3] = dose 66 μmol/kg p.o. once daily
[4] = dose 132 μmol/kg p.o. once daily

| Ratio internal over external concentration (blood cells) | Structure (SMILES) | arthitic score [1] | relative score at day 9 after onset of arthritis [2, 3] | relative score at day 9 after onset of arthritis [2, 4] |
| --- | --- | --- | --- | --- |
| ++ (>5-fold enhancement in blood cells) | CC[C@H]1OC(=O)[C@H](C)C(=O)[C@H](C)[C@@H](O[C@@H]2O[C@H](C)C[C@H](N(C)C)[C@H]2OC(=O)Cc2c(-c3ccc(Cl)s3)c(-c3ccccc3)c3n2CC(C)(C)C3)[C@](C)(O)C[C@@H](C)CN(C)[C@H](C)[C@@H](O)[C@]1(C)O [Compound 8] | + |  |  |
|  | CC[C@H]1OC(=O)[C@H](C)C(=O)[C@H](C)[C@@H](O[C@@H]2O[C@H](C)C[C@H](N(C)C)[C@H]2OC(=O)Cc2c(-c3ccc(Cl)cc3)c(-c3ccccc3)c3n2CC(C)(C)C3)[C@](C)(O)C[C@@H](C)CN(C)[C@H](C)[C@@H](O)[C@]1(C)O [Compound 4] |  | 76% | 33% |
|  | CC1(C)Cc2c(-c3ccccc3)c(-c3ccc(Cl)cc3)c(CC(=O)O)n2C1 [Active moiety alone, licofelone, reference compound] |  |  | 90% |
|  | CC[C@H]1OC(=O)[C@H](C)C2O[C@](C)(C[C@@H](C)CN(C)[C@H](C)[C@@H](O)[C@]1(C)O)[C@H](O[C@@H]1O[C@H](C)C[C@H](N(C)C)[C@H]1OC(=O)Cc1c(-c3ccc(Cl)cc3)c(-c3ccccc3)c3n1CC(C)(C)C3)[C@H]2C [Compound 9] |  | 67% | 14% |
| + | CC1(C)Cc2c(-c3ccccc3)c(-c3cc4ccccc4o3)c(CC(=O)O)n2C1 [Drug component of 5 (without macrolide), (2-benzofuran-2-yl-6,6-dimethyl-1-phenyl-6,7-dihydro-5H-pyrrolizin-3-yl)-acetic acid, reference compound] | ++++ |  |  |
| + | CC1(C)Cc2c(-c3ccccc3)c(-c3ccc(Cl)s3)c(CC(=O)O)n2C1 [Drug component of 8 (without macrolide), [2-(5-chloro-thiophen-2-yl)-6,6-dimethyl-1-phenyl-6,7-dihydro-5H-pyrrolizin-3-yl]-acetic acid, reference compound] | ++ |  |  |
|  | CC[C@H]1OC(=O)[C@H](C)[C@@H](O)[C@H](C)[C@@H](O[C@@H]2O[C@H](C)C[C@H](N(C)C)[C@H]2OC(=O)Cc2c(-c3ccc(Cl)cc3)c(-c3ccccc3)c3n2CC(C)(C)C3)[C@](C)(O)C[C@@H](C)CN(C)[C@H](C)[C@@H](O)[C@]1(C)O [Compound 2] |  | 44% |  |

| Structure (SMILES) | Ratio internal over external concentration (blood cells) | arthitic score [1] | relative score at day 9 after onset of arthritis [2, 3] | relative score at day 9 after onset of arthritis [2, 4] |
| --- | --- | --- | --- | --- |
| CC[C@H]1OC(=O)[C@H](C)C(=O)[C@H](C)[C@@H](O[C@@H]2O[C@H](C)C[C@H](N(C)C)[C@H]2OC(=O)Cc2c(-c3cc4ccccc4o3)c(-c3ccccc3)c3n2CC(C)(C)C3)[C@](C)(O)C[C@@H](C)CN(C)[C@H](C)[C@@H](O)[C@]1(C)O [Compound 5] | +++ (>10-fold enhancement in blood cells) | − |  |  |
